This passage reports IC50 results from ChEMBL document CHEMBL1133366, “Synthesis and structure-activity relationships of 3-cyano-4-(phenoxyanilino)quinolines as MEK (MAPKK) inhibitors” (Bioorg Med Chem Lett, 2000).

Bounds are passed on as bounds.

In experiment [1] the target is T1, Serine/threonine-protein kinase RAF and Dual specificity mitogen-activated protein kinase kinase 1 (Raf/MEK) (Homo sapiens, UniProt P04049+Q02750). As to the kind of experiment: Inhibition of ERK-phosphorylation by Raf-MEK-ERK in coupled ELISA. It counts as protein assay. In general terms: ELISA stands for enzyme-linked immunosorbent assay.
Experiment [2] addresses Dual specificity mitogen-activated protein kinase kinase 1 (Homo sapiens, UniProt Q02750). As to the kind of experiment: Inhibition of ERK-phosphorylation by MEK-ERK in direct ELISA.
Experiment [3] concerns COLO 205. As to the kind of experiment: cells. The following applies: Homo sapiens.
Description: Inhibition of COLO 205 human colon tumor cell proliferation
Experiment [4] has as its system SW-620. As to the kind of experiment: Inhibition of SW620 human colon tumor cell proliferation.
Experiment [5] has as its system LoVo. As to the kind of experiment: Inhibition of LoVo human colon tumor cell proliferation.
In experiment [6] the target is T1, Serine/threonine-protein kinase RAF and Dual specificity mitogen-activated protein kinase kinase 1 (Raf/MEK). As to the kind of experiment: Inhibition of ERK phosphorylation in coupled Raf-MEK-ERK ELISA (Weakly active). Type of experiment: protein assay.

Dual specificity mitogen-activated protein kinase kinase 1, sequence (Q02750 whole entry): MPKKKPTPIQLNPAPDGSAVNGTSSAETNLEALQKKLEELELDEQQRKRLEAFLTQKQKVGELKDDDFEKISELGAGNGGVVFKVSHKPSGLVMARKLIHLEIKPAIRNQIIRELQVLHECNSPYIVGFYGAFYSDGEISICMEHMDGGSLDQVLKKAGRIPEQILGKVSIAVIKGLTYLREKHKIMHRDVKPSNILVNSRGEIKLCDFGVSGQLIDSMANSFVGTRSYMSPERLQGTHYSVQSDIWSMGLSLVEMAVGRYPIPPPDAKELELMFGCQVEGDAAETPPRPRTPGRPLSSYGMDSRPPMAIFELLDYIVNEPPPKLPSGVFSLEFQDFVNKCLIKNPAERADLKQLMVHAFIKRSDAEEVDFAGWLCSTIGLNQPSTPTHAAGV

Consider `COc1cc2ncc(C#N)c(Nc3ccccc3Oc3ccccc3)c2cc1OC`, for which the IC50 in experiment [1] and in experiment [2] was over 10000 nM throughout.

`COc1cc2ncc(C#N)c(Nc3ccc(Oc4ccccc4)cc3)c2cc1OC`: the half-maximal inhibitory concentration (IC50) was found to be 1430 nM in experiment [3], 1500 nM in experiment [4] and 630 nM in experiment [5].

Take `COc1cc2c(Nc3ccc(Oc4ccccc4)cc3)c(C#N)cnc2cc1OCCCN1CCOCC1`: the half-inhibitory concentration (IC50) was found to be 360 nM in experiment [3]; 2.4 nM in experiment [1]; 380 nM in experiment [4]; 190 nM in experiment [5]; 7 nM in experiment [2].

As for `COc1cc2c(Nc3ccc(Oc4ccccc4)cc3)c(C#N)cnc2c(OC)c1OC`, the concentration for half-maximal inhibition (IC50) in experiment [1] and in experiment [2] was over 10000 nM each time.

On to `COc1ccc(OC)c2c(Nc3ccc(Oc4ccccc4)cc3)c(C#N)cnc12`, for which the IC50 in experiment [1] and in experiment [2] was over 10000 nM in each case.

As for `COc1cccc2c(Nc3ccc(Oc4ccccc4)cc3)c(C#N)cnc12`, the 50% inhibitory concentration (IC50) in experiment [1] and in experiment [2] was over 10000 nM throughout.

Consider `COc1cc2c(Nc3ccc(Oc4ccccc4)cc3)c(C#N)cnc2cc1OCCN1CCOCC1`, for which the IC50 in experiment [3] amounted to 630 nM; in experiment [4] it was 700 nM; in experiment [5], 250 nM.

`COc1cc2ncnc(Nc3ccc(Oc4ccccc4)cc3)c2cc1OC` had a half-inhibitory concentration (IC50) in experiment [6] of over 100000 nM.

The term IC50 denotes the concentration at which inhibition is half-maximal. Low readings indicate higher potency, high ones lower potency.
